Laboratory results taken from article PMC9284491 (Nature Communications, 2022).
“Also recorded” adds a separate entry of the source.

Test: Treatment-emergent adverse events (MedDRA, NCI-CTCAE v4.03), safety populations
Format: in vivo, human
Protocol: Overall safety in Parts A and B was assessed by tabulating TEAEs, coded using the Medical Dictionary for Regulatory Activities (MedDRA) version 22.1, and graded according to NCI-CTCAE v4.03 criteria. TEAEs were classified as related or unrelated to amcenestrant therapy based upon the local investigating physician’s clinical judgment. The safety population included all patients exposed to at least one dose of the study treatment. Results were analyzed using descriptive statistics.

O=C(O)c1ccc2c(c1)CCCC(c1ccc(Cl)cc1Cl)=C2c1ccc(O[C@H]2CCN(CCCF)C2)cc1 [amcenestrant, 6-(2,4-Dichlorophenyl)−5-[4-[(3S)−1-(3-fluoropropyl)pyrrolidin-3-yl]oxyphenyl]−8,9-dihydro-7H-benzo[7]annulene-2-carboxylic acid]
Hypoesthesia, TEAEs, Grade 2 (Part A, 20-600 mg QD (N = 16)): 0 n (%)
Hypoesthesia, TEAEs, Grade ≥3 (Part A, 20-600 mg QD (N = 16)): 0 n (%)
Hypoesthesia, Treatment-related TEAEs, All Grades (Part A, 20-600 mg QD (N = 16)): 0 n (%)
Hypoesthesia, Treatment-related TEAEs, Grade 1 (Part A, 20-600 mg QD (N = 16)): 0 n (%)
Hypoesthesia, Treatment-related TEAEs, Grade 2 (Part A, 20-600 mg QD (N = 16)): 0 n (%)
Hypoesthesia, Treatment-related TEAEs, Grade ≥3 (Part A, 20-600 mg QD (N = 16)): 0 n (%)
Nausea, TEAEs, All grades (Part A, 20-600 mg QD (N = 16)): 6 (37.5) n (%)
Nausea, TEAEs, Grade 1 (Part A, 20-600 mg QD (N = 16)): 3 (18.8) n (%)
Nausea, TEAEs, Grade 2 (Part A, 20-600 mg QD (N = 16)): 3 (18.8) n (%)
Nausea, TEAEs, Grade ≥3 (Part A, 20-600 mg QD (N = 16)): 0 n (%)
Nausea, Treatment-related TEAEs, All Grades (Part A, 20-600 mg QD (N = 16)): 4 (25.0) n (%)
Nausea, Treatment-related TEAEs, Grade 1 (Part A, 20-600 mg QD (N = 16)): 3 (18.8) n (%)
Nausea, Treatment-related TEAEs, Grade 2 (Part A, 20-600 mg QD (N = 16)): 1 (6.3) n (%)
Nausea, Treatment-related TEAEs, Grade ≥3 (Part A, 20-600 mg QD (N = 16)): 0 n (%)
Night sweat, TEAEs, All grades (Part A, 20-600 mg QD (N = 16)): 3 (18.8) n (%)
Night sweat, TEAEs, Grade 1 (Part A, 20-600 mg QD (N = 16)): 3 (18.8) n (%)
Night sweat, TEAEs, Grade 2 (Part A, 20-600 mg QD (N = 16)): 0 n (%)
Night sweat, TEAEs, Grade ≥3 (Part A, 20-600 mg QD (N = 16)): 0 n (%)
Night sweat, Treatment-related TEAEs, All Grades (Part A, 20-600 mg QD (N = 16)): 3 (18.8) n (%)
Night sweat, Treatment-related TEAEs, Grade 1 (Part A, 20-600 mg QD (N = 16)): 3 (18.8) n (%)
Night sweat, Treatment-related TEAEs, Grade 2 (Part A, 20-600 mg QD (N = 16)): 0 n (%)
Night sweat, Treatment-related TEAEs, Grade ≥3 (Part A, 20-600 mg QD (N = 16)): 0 n (%)
Urinary tract infection, TEAEs, All grades (Part A, 20-600 mg QD (N = 16)): 4 (25.0) n (%)
Urinary tract infection, TEAEs, Grade 1 (Part A, 20-600 mg QD (N = 16)): 0 n (%)
Urinary tract infection, TEAEs, Grade 2 (Part A, 20-600 mg QD (N = 16)): 3 (18.8) n (%)
Urinary tract infection, TEAEs, Grade ≥3 (Part A, 20-600 mg QD (N = 16)): 1 (6.3) n (%)
Urinary tract infection, Treatment-related TEAEs, All Grades (Part A, 20-600 mg QD (N = 16)): 0 n (%)
Urinary tract infection, Treatment-related TEAEs, Grade 1 (Part A, 20-600 mg QD (N = 16)): 0 n (%)
Urinary tract infection, Treatment-related TEAEs, Grade 2 (Part A, 20-600 mg QD (N = 16)): 0 n (%)
Urinary tract infection, Treatment-related TEAEs, Grade ≥3 (Part A, 20-600 mg QD (N = 16)): 0 n (%)
cardiac non-treatment-related TEAEs (Part A, Grade 1 palpitations and Grade 2 prolonged QT interval): 2 patients
eye disorder treatment-related TEAE (Part A, Grade 1 photophobia): 1 patient
serious TEAEs (Part A, associated with disease progression, considered unrelated to amcenestrant): three patients
TEAE leading to treatment discontinuation (Part B): one Grade ≥3 TEAE of pneumonia led to treatment discontinuation
eye disorder non-treatment-related TEAEs (Part B): Three eye disorder non-treatment-related TEAEs were reported in two patients
serious TEAEs related to amcenestrant (Part B / overall, by investigator): none were considered related to amcenestrant; also recorded: No serious AEs were considered treatment-related
ALT increased, TEAEs, All grades (Part B, 400 mg QD (N = 49)): 3 (6.1) n (%)
ALT increased, TEAEs, Grade 1 (Part B, 400 mg QD (N = 49)): 0 n (%)
ALT increased, TEAEs, Grade 2 (Part B, 400 mg QD (N = 49)): 0 n (%)
ALT increased, TEAEs, Grade ≥3 (Part B, 400 mg QD (N = 49)): 3 (6.1) n (%)
ALT increased, Treatment-related TEAEs, All Grades (Part B, 400 mg QD (N = 49)): 0 n (%)
ALT increased, Treatment-related TEAEs, Grade 1 (Part B, 400 mg QD (N = 49)): 0 n (%)
ALT increased, Treatment-related TEAEs, Grade 2 (Part B, 400 mg QD (N = 49)): 0 n (%)
ALT increased, Treatment-related TEAEs, Grade ≥3 (Part B, 400 mg QD (N = 49)): 0 n (%)
AST increased, TEAEs, All grades (Part B, 400 mg QD (N = 49)): 3 (6.1) n (%)
AST increased, TEAEs, Grade 1 (Part B, 400 mg QD (N = 49)): 0 n (%)
AST increased, TEAEs, Grade 2 (Part B, 400 mg QD (N = 49)): 0 n (%)
AST increased, TEAEs, Grade ≥3 (Part B, 400 mg QD (N = 49)): 3 (6.1) n (%)
AST increased, Treatment-related TEAEs, All Grades (Part B, 400 mg QD (N = 49)): 0 n (%)
AST increased, Treatment-related TEAEs, Grade 1 (Part B, 400 mg QD (N = 49)): 0 n (%)
AST increased, Treatment-related TEAEs, Grade 2 (Part B, 400 mg QD (N = 49)): 0 n (%)
AST increased, Treatment-related TEAEs, Grade ≥3 (Part B, 400 mg QD (N = 49)): 0 n (%)
Abdominal pain upper, TEAEs, All grades (Part B, 400 mg QD (N = 49)): 6 (12.2) n (%)
Abdominal pain upper, TEAEs, Grade 1 (Part B, 400 mg QD (N = 49)): 2 (4.1) n (%)
Abdominal pain upper, TEAEs, Grade 2 (Part B, 400 mg QD (N = 49)): 4 (8.2) n (%)
Abdominal pain upper, TEAEs, Grade ≥3 (Part B, 400 mg QD (N = 49)): 0 n (%)
Abdominal pain upper, Treatment-related TEAEs, All Grades (Part B, 400 mg QD (N = 49)): 1 (2.0) n (%)
Abdominal pain upper, Treatment-related TEAEs, Grade 1 (Part B, 400 mg QD (N = 49)): 1 (2.0) n (%)
Abdominal pain upper, Treatment-related TEAEs, Grade 2 (Part B, 400 mg QD (N = 49)): 0 n (%)
Abdominal pain upper, Treatment-related TEAEs, Grade ≥3 (Part B, 400 mg QD (N = 49)): 0 n (%)
Abdominal pain, TEAEs, All grades (Part B, 400 mg QD (N = 49)): 11 (22.4) n (%)
Abdominal pain, TEAEs, Grade 1 (Part B, 400 mg QD (N = 49)): 8 (16.3) n (%)
Abdominal pain, TEAEs, Grade 2 (Part B, 400 mg QD (N = 49)): 3 (6.1) n (%)
Abdominal pain, TEAEs, Grade ≥3 (Part B, 400 mg QD (N = 49)): 0 n (%)
Abdominal pain, Treatment-related TEAEs, All Grades (Part B, 400 mg QD (N = 49)): 2 (4.1) n (%)
Abdominal pain, Treatment-related TEAEs, Grade 1 (Part B, 400 mg QD (N = 49)): 2 (4.1) n (%)
Abdominal pain, Treatment-related TEAEs, Grade 2 (Part B, 400 mg QD (N = 49)): 0 n (%)
Abdominal pain, Treatment-related TEAEs, Grade ≥3 (Part B, 400 mg QD (N = 49)): 0 n (%)
Any TEAE, TEAEs, All grades (Part B, 400 mg QD (N = 49)): 49 (100) n (%)
Any TEAE, TEAEs, Grade 1 (Part B, 400 mg QD (N = 49)): 11 (22.4) n (%)
Any TEAE, TEAEs, Grade 2 (Part B, 400 mg QD (N = 49)): 22 (44.9) n (%)
Any TEAE, TEAEs, Grade ≥3 (Part B, 400 mg QD (N = 49)): 16 (32.7) n (%)
Any TEAE, Treatment-related TEAEs, All Grades (Part B, 400 mg QD (N = 49)): 26 (53.1) n (%)
Any TEAE, Treatment-related TEAEs, Grade 1 (Part B, 400 mg QD (N = 49)): 21 (42.9) n (%)
Any TEAE, Treatment-related TEAEs, Grade 2 (Part B, 400 mg QD (N = 49)): 5 (10.2) n (%)
Any TEAE, Treatment-related TEAEs, Grade ≥3 (Part B, 400 mg QD (N = 49)): 0 n (%)
Arthralgia, TEAEs, All grades (Part B, 400 mg QD (N = 49)): 10 (20.4) n (%)
Arthralgia, TEAEs, Grade 1 (Part B, 400 mg QD (N = 49)): 7 (14.3) n (%)
Arthralgia, TEAEs, Grade 2 (Part B, 400 mg QD (N = 49)): 3 (6.1) n (%)
Arthralgia, TEAEs, Grade ≥3 (Part B, 400 mg QD (N = 49)): 0 n (%)
Arthralgia, Treatment-related TEAEs, All Grades (Part B, 400 mg QD (N = 49)): 4 (8.2) n (%)
Arthralgia, Treatment-related TEAEs, Grade 1 (Part B, 400 mg QD (N = 49)): 3 (6.1) n (%)
Arthralgia, Treatment-related TEAEs, Grade 2 (Part B, 400 mg QD (N = 49)): 1 (2.0) n (%)
Arthralgia, Treatment-related TEAEs, Grade ≥3 (Part B, 400 mg QD (N = 49)): 0 n (%)
Asthenia, TEAEs, All grades (Part B, 400 mg QD (N = 49)): 10 (20.4) n (%)
Asthenia, TEAEs, Grade 1 (Part B, 400 mg QD (N = 49)): 7 (14.3) n (%)
Asthenia, TEAEs, Grade 2 (Part B, 400 mg QD (N = 49)): 3 (6.1) n (%)
Asthenia, TEAEs, Grade ≥3 (Part B, 400 mg QD (N = 49)): 0 n (%)
Asthenia, Treatment-related TEAEs, All Grades (Part B, 400 mg QD (N = 49)): 2 (4.1) n (%)
Asthenia, Treatment-related TEAEs, Grade 1 (Part B, 400 mg QD (N = 49)): 2 (4.1) n (%)
Asthenia, Treatment-related TEAEs, Grade 2 (Part B, 400 mg QD (N = 49)): 0 n (%)
Asthenia, Treatment-related TEAEs, Grade ≥3 (Part B, 400 mg QD (N = 49)): 0 n (%)
